Laboratory results reported in patent US7851443B2, “Combination comprising combretastatin and anticancer agents” (Aventis Pharma SA, priority 2005, dated 2010).

Columns and labels:
[1] = Toxicity (mortality, weight loss) in tumor-bearing mice; type: in vivo, female C3H/HeN mice
Procedure: (§1) The animals subjected to the experiment are female C3H/HeN mice which are bilaterally grafted subcutaneously with 30 to 60 mg of a fragment of MA13/C murine mammary adenocarcinoma tumor at day 0. In the case of an early tumor treatment, the implanted animals are distributed randomly in various groups which are or are not (controls) intended to receive the treatment(s). […] Generally, the chemotherapy begins from 3 to 22 days after the graft, according to the type of tumor and the desired tumor size. The animals are observed and weighed every day. A dose which induces a weight loss of 20% or more at the lowest point (average of the group) or a mortality of 10% or more is considered to be toxic. The tumoral activity is evaluated at the highest nontoxic dose.

[2] = system: MA13/C murine mammary adenocarcinoma tumor; assay: Antitumor effect on advanced MA13/C murine mammary adenocarcinoma grafted subcutaneously in mice; type: in vivo, female C3H/HeN mice
Procedure: This efficacy can be quantified, for example by the log10 cell kill, which is determined by the following formula: log10 cell kill=T-C (days)/3.32×Td in which T-C represents the delay in tumor growth, which is the average time, in days, taken by the tumors of the treated group (T) to reach a predetermined value (1 g for example) and for the tumors of the control group (C) to reach the same value, and Td represents the time, in days, necessary for the volume of the tumors in the control group to double. During the exponential phase of tumor growth (T. H. Corbett et al., Cancer, 40, 2660.2680 (1977); F. M. Schabel et al., Cancer Drug Development, Part B, Methods in Cancer Research, 17, 3-51, New York, Academic Press Inc. (1979)). A product is considered to be active if the log10 cell kill is greater than or equal to 0.7.
The efficacy of the combinations of solid tumors can be determined experimentally in the following way:
as §1
The tumors are measured 2 or 3 times a week until the tumor reaches approximately 2 g or until the animal dies, if this occurs before the tumor reaches 2 g. The animals are autopsied when they are sacrificed.
The antitumor activity is determined in accordance with various recorded parameters, such as the dose (mg/kg), the method of administration, the administration time, the toxicity and the log cell kill, which depends on the delay in tumor growth and also on the tumor doubling time.

[3] = VEGF Trap SC 10.0 mg/kg per administration, days 21, 25, total dose 20.0 mg/kg
[4] = VEGF Trap SC 25.0 mg/kg per administration, days 21, 25, total dose 50.0 mg/kg
[5] = VEGF Trap SC 40.0 mg/kg per administration, days 21, 25, total dose 80.0 mg/kg
[6] = Formula (IIa) IV 22.3 mg/kg per administration, days 21, 25, total dose 44.6 mg/kg
[7] = Formula (IIa) IV 36.0 mg/kg per administration, days 21, 25, total dose 72.0 mg/kg
[8] = Formula (IIa) IV 58.0 mg/kg per administration, days 21, 25, total dose 116.0 mg/kg
[9] = Formula (IIa) IV 93.5 mg/kg per administration, days 21, 25, total dose 187.0 mg/kg

VEGF Trap: fusion protein: VEGFR1 signal sequence, Ig domain D2 of VEGFR1, Ig domain D3 of VEGFR2, IgG1 Fc domain
Average weight loss as % per mouse at the lowest point (day of the lowest point) [1, 3]: 0.4 (23) %
Mortality related to the agent (day of death) [1, 3]: 0/5
Average weight loss as % per mouse at the lowest point (day of the lowest point) [1, 4]: 1.8 (23) %
Mortality related to the agent (day of death) [1, 4]: 0/5
Average weight loss as % per mouse at the lowest point (day of the lowest point) [1, 5]: 1.3 (23) %
Mortality related to the agent (day of death) [1, 5]: 0/5
Comments [2, 3]: Inactive
Log cell kill [2, 3]: 0.1
Regression Complete [2, 3]: 0/5
Regression Partial [2, 3]: 0/5
T-C [2, 3]: 0.4 days
Time to reach tumor size of 1000 mg (median) [2, 3]: 24.2 days
Comments [2, 4]: Inactive
Log cell kill [2, 4]: 0.4
Regression Complete [2, 4]: 0/5
Regression Partial [2, 4]: 0/5
T-C [2, 4]: 2.8 days
Time to reach tumor size of 1000 mg (median) [2, 4]: 26.6 days
Log cell kill [2, 5]: 0.1
Regression Complete [2, 5]: 0/5
Regression Partial [2, 5]: 0/5
T-C [2, 5]: 0.8 days
Time to reach tumor size of 1000 mg (median) [2, 5]: 24.6 days
Comments ([2]; VEGF Trap SC 40.0 mg/kg per administration, days 21, 25, total dose 80.0 mg/kg (MAD)): inactive

COc1ccc(/C=C\c2cc(OC)c(OC)c(OC)c2)cc1NC(=O)C(N)CO (stereo not shown) [Formula (IIa)]
Average weight loss as % per mouse at the lowest point (day of the lowest point) [1, 6]: 0.6 (22) %
Mortality related to the agent (day of death) [1, 6]: 0/5
Average weight loss as % per mouse at the lowest point (day of the lowest point) [1, 7]: 2.1 (22) %
Mortality related to the agent (day of death) [1, 7]: 0/5
Average weight loss as % per mouse at the lowest point (day of the lowest point) [1, 8]: 3.8 (22) %
Comments (dose level) [1, 8]: HNTD
Mortality related to the agent (day of death) [1, 8]: 0/5
Average weight loss as % per mouse at the lowest point (day of the lowest point) [1, 9]: 7.4 (26) %
Comments [1, 9]: Toxic
Mortality related to the agent (day of death) [1, 9]: 1/5 (23)
Comments [2, 6]: Inactive
Log cell kill [2, 6]: 0.4
Regression Complete [2, 6]: 0/5
Regression Partial [2, 6]: 0/5
T-C [2, 6]: 3.4 days
Time to reach tumor size of 1000 mg (median) [2, 6]: 27.2 days
Comments [2, 7]: Inactive
Log cell kill [2, 7]: 0.5
Regression Complete [2, 7]: 0/5
Regression Partial [2, 7]: 0/5
T-C [2, 7]: 4.1 days
Time to reach tumor size of 1000 mg (median) [2, 7]: 27.9 days
Comments [2, 8]: inactive
Log cell kill [2, 8]: 0.6
Regression Complete [2, 8]: 0/5
Regression Partial [2, 8]: 0/5
T-C [2, 8]: 5.1 days
Time to reach tumor size of 1000 mg (median) [2, 8]: 28.9 days
